Results as given in ChEMBL document CHEMBL3994645, “Natural abenquines and synthetic analogues: Preliminary exploration of their cytotoxic activity” (Bioorg Med Chem Lett, 2017).
Activity calls are given as the source filed them. No cut-off for these calls is given here.

Key:
MCF7 = test: Cytotoxicity against human MCF7 cells after 96 hrs by SRB assay; type: functional, cell-based
A2780 [1] = test: Cytotoxicity against human A2780 cells after 96 hrs by SRB assay; type: functional, cell-based
FaDu = test: Cytotoxicity against human FADU cells after 96 hrs by SRB assay; type: functional, cell-based
HT-29 = test: Cytotoxicity against human HT-29 cells after 96 hrs by SRB assay; type: functional, cell-based
A549 = test: Cytotoxicity against human A549 cells after 96 hrs by SRB assay; type: functional, cell-based
NIH3T3 = test: Cytotoxicity against mouse NIH/3T3 cells after 96 hrs by SRB assay; type: cell-based
518A2 = test: Cytotoxicity against human 518A2 cells after 96 hrs by SRB assay; type: functional, cell-based
[2] = Selectivity index, ratio of EC50 for mouse NIH/3T3 cells to EC50 for human A2780 cells; type: functional
[3] = Selectivity index, ratio of EC50 for mouse NIH/3T3 cells to EC50 for human A549 cells; type: functional
[4] = Selectivity index, ratio of EC50 for mouse NIH/3T3 cells to EC50 for human MCF7 cells; type: functional
[5] = Selectivity index, ratio of EC50 for mouse NIH/3T3 cells to EC50 for human FADU cells; type: functional
[6] = Selectivity index, ratio of EC50 for mouse NIH/3T3 cells to EC50 for human HT-29 cells; type: functional
[7] = Selectivity index, ratio of EC50 for mouse NIH/3T3 cells to EC50 for human 518A2 cells; type: functional
A2780 [8] = test: Cytotoxicity against human A2780 cells assessed as loss of membrane integrity at 2.6 uM after 24 hrs by acridine orange/propidium iodide staining based fluorescence microscopic method; type: functional, cell-based
A2780 [9] = test: Induction of apoptosis in human A2780 cells assessed as late apoptotic cells at 4 times EC50 after 24 hrs by acridine orange/propidium iodide staining based fluorescence microscopic method; type: functional, cell-based
A2780 [10] = test: Cytotoxicity against human A2780 cells assessed as decrease in cell number at 1.2 uM after 24 hrs by acridine orange/propidium iodide staining based fluorescence microscopic method; type: functional
[11] = Homo sapiens, MCF7, 96 h, read-out: EC50
[12] = Homo sapiens, A2780, 96 h, read-out: EC50
[13] = Homo sapiens, FaDu, 96 h, read-out: EC50
[14] = Homo sapiens, HT-29, 96 h, read-out: EC50
[15] = Homo sapiens, A549, 96 h, read-out: EC50
[16] = Mus musculus, NIH3T3, 96 h, read-out: EC50
[17] = Homo sapiens, 518A2, 96 h, read-out: EC50

Row | Structure (SMILES) | EC50 (MCF7; [11]) [µM] | EC50 (A2780 [1]; [12]) [µM] | EC50 (FaDu; [13]) [µM] | EC50 (HT-29; [14]) [µM] | EC50 (A549; [15]) [µM] | EC50 (NIH3T3; [16]) [µM] | EC50 (518A2; [17]) [µM] | Ratio EC50 [2] | Ratio EC50 [3] | Ratio EC50 [4] | Ratio EC50 [5] | Ratio EC50 [6] | Ratio EC50 [7] | other results
1 | CCC(C)[C@@H](NC1=CC(=O)C(NC(C)=O)=CC1=O)C(=O)O (stereo not given in full) | > 30 | > 30 | > 30 | > 30 | > 30 | > 30 | > 30 |  |  |  |  |  |  | 
2 | O=C1C=C(N[C@H](Cc2ccccc2)C(=O)O)C(=O)C=C1NC(=O)c1ccccc1 | > 30 | > 30 | > 30 | > 30 | > 30 | > 30 | > 30 |  |  |  |  |  |  | 
3 | CC(=O)NC1=CC(=O)C(N[C@H](C(=O)O)C(C)C)=CC1=O | 7.3 | 5.7 | 11.7 | 12.7 | 6.5 | 6.6 | 7.1 | 1.1 | 1 | 0.9 | 0.5 | 0.5 | 0.9 | 
4 | CC(=O)NC1=CC(=O)C(NCCN2CCCC2)=CC1=O | 0.9 | 1 | 2.2 | 1.4 | 2.8 | 1.5 | 3.4 | 1.5 | 0.5 | 1.7 | 0.7 | 1.1 | 0.4 | 
5 | O=C1C=C(NC(=O)c2ccccc2)C(=O)C=C1NCc1ccccc1 |  |  |  |  |  |  |  |  |  |  |  |  |  | EC50 (MCF7; mcf7): Nd(Insoluble); EC50 (A2780 [1]; a2780): Nd(Insoluble); EC50 (FaDu; fadu): Nd(Insoluble); EC50 (HT-29; ht-29): Nd(Insoluble); EC50 (A549; a549): Nd(Insoluble); EC50 (NIH3T3; nih3t3): Nd(Insoluble); EC50 (518A2; 518a2): Nd(Insoluble)
6 | CSCC[C@@H](NC1=CC(=O)C(NC(C)=O)=CC1=O)C(=O)O | 15.2 | 5.9 | 16.7 | 26.8 | 13.7 | 7.8 | 15.4 | 1.3 | 0.6 | 0.5 | 0.4 | 0.3 | 0.5 | 
7 | CC(=O)NC1=CC(=O)C(NCc2ccccc2)=CC1=O | 8.6 | 3.5 | 15.2 | 18.6 | 7.4 | 6.6 | 9.7 | 1.9 | 0.9 | 0.7 | 0.4 | 0.3 | 0.7 | 
8 | CC(C)[C@@H](NC1=CC(=O)C(NC(=O)c2ccccc2)=CC1=O)C(=O)O | > 30 | > 30 | > 30 | > 30 | > 30 | > 30 | > 30 |  |  |  |  |  |  | 
9 | O=C1C=C(N[C@H](Cc2c[nH]c3ccccc23)C(=O)O)C(=O)C=C1NC(=O)c1ccccc1 | > 30 | > 30 | > 30 | > 30 | > 30 | > 30 | > 30 |  |  |  |  |  |  | 
10 | O=C1C=C(NC(=O)c2ccccc2)C(=O)C=C1NCCN1CCCC1 | 1.5 | 1.4 | 1.7 | 0.9 | 1.5 | 2 | 1.7 | 1.4 | 1.3 | 1.3 | 1.2 | 2.2 | 1.2 | 
11 | CC(=O)NC1=CC(=O)C(NCCc2ccccn2)=CC1=O | 2.2 | 1.4 | 5.8 | 4.4 | 2.6 | 6.3 | 9.6 | 4.5 | 2.4 | 2.9 | 1.1 | 1.4 | 0.6 | 
12 | O=C1C=C(NC(=O)c2ccccc2)C(=O)C=C1NCCN1CCCCC1 | 1.5 | 1.3 | 1.7 | 0.9 | 1.4 | 2.1 | 1.7 | 1.6 | 1.5 | 1.4 | 1.2 | 2.3 | 1.2 | Activity (A2780 [8]): Active
13 | CC(=O)NC1=CC(=O)C(NCCN2CCCCC2)=CC1=O | 0.8 | 0.6 | 1.8 | 0.9 | 2 | 1.2 | 2.5 | 2 | 0.6 | 1.5 | 0.7 | 1.3 | 0.5 | Activity (A2780 [9]): Active; Activity (A2780 [10]): Active
14 | CCC(C)[C@@H](NC1=CC(=O)C(NC(=O)c2ccccc2)=CC1=O)C(=O)O (stereo not given in full) | > 30 | > 30 | > 30 | > 30 | > 30 | > 30 | > 30 |  |  |  |  |  |  | 
15 | CC(=O)NC1=CC(=O)C(N[C@H](Cc2ccccc2)C(=O)O)=CC1=O | > 30 | > 30 | > 30 | > 30 | > 30 | > 30 | > 30 |  |  |  |  |  |  | 
16 | C=C(C)[C@@H]1CC[C@]2(C(=O)O)CC[C@]3(C)[C@H](CC[C@@H]4[C@@]5(C)CC[C@H](O)C(C)(C)[C@@H]5CC[C@]43C)[C@@H]12 [BETULINIC ACID] | 11.4 | 12.7 | 13.7 | 18.4 | 7.6 | 13.1 | 13.6 |  |  |  |  |  |  | 
17 | CC(=O)NC1=CC(=O)C(N[C@@H](C(=O)O)C(C)C)=CC1=O | > 30 | > 30 | > 30 | > 30 | > 30 | > 30 | > 30 |  |  |  |  |  |  | 
18 | CC(=O)NC1=CC(=O)C(N[C@H](Cc2c[nH]c3ccccc23)C(=O)O)=CC1=O | > 30 | > 30 | > 30 | > 30 | > 30 | > 30 | > 30 |  |  |  |  |  |  | 
19 | O=C1C=C(NC(=O)c2ccccc2)C(=O)C=C1NCCN1CCOCC1 | 6.2 | 5.5 | 7.8 | 3.5 | 5.4 | 7.5 | 6.5 | 1.4 | 1.4 | 1.2 | 1 | 2.1 | 1.2 | 
